13 molecules from PubChem BioAssay (NCI) can be followed below.

Structures are written as SMILES.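 96-well plates; 48 h exposure; 5 concentrations. Endpoints by linear interpolation between flanking doses. Not reached: highest tested concentration assigned. TGI is the concentration that stops growth completely.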 Where a SMILES comes first, the peptide text is derived from it. The star is where a group is joined. Cbz = O=C(OCc1ccccc1)*

Test systems include OVCAR-3 ovarian; SF-539 CNS; MDA-MB-435; HT29 colon; NCI-H23 lung; EKVX NSCLC; SNB-19 CNS; A498 renal; BT-549 breast; HOP-62 NSCLC.
Holding throughout (assay): NCI tumour cell line growth inhibition, 48 h

As for `COP(=O)(OC)[C@@](O)(c1ccccc1)[C@@H](O)[C@H](O)c1ccccc1`, the TGI in the assay with OVCAR-3 ovarian, with SF-539 CNS, with MDA-MB-435, in the assay with HT29 colon, in the assay with NCI-H23 lung and with EKVX NSCLC was more than 100 µM each time. Further, the TGI with SNB-19 CNS, in the assay with A498 renal and in the assay with BT-549 breast was more than 100 µM throughout.

As to `C#CCOC(=O)C=[N+]=[N-]`, the TGI in the assay with OVCAR-3 ovarian, in the assay on SF-539 CNS, with MDA-MB-435, with HT29 colon, in the assay with NCI-H23 lung and with EKVX NSCLC was more than 10 µM in each case. Also, the TGI with SNB-19 CNS, in the assay on A498 renal, in the assay on HOP-62 NSCLC and with BT-549 breast was more than 10 µM each time.

On to `Cc1ccc(N=NC(=Nc2ccc(F)cc2)c2ccc(N(CCC#N)CCC#N)cc2)cc1`, for which the TGI with OVCAR-3 ovarian, in the assay on SF-539 CNS, in the assay with MDA-MB-435, in the assay with HT29 colon, in the assay on NCI-H23 lung and with EKVX NSCLC was more than 100 µM each time. In addition, the TGI in the assay with SNB-19 CNS, in the assay with A498 renal, in the assay with HOP-62 NSCLC and in the assay on BT-549 breast was more than 100 µM each time.

Regarding `CSC(=Nc1ccccc1)c1c(C)[nH]n(-c2ccccc2)c1=O`, the TGI with OVCAR-3 ovarian, in the assay on SF-539 CNS, with MDA-MB-435, in the assay on HT29 colon, with NCI-H23 lung and in the assay on EKVX NSCLC was more than 100 µM in each case. The TGI with SNB-19 CNS, in the assay with A498 renal and with BT-549 breast was more than 100 µM each time.

Regarding `CC1=C[C@H](C[C@]2(C)c3c(c4c(C)cccc4oc3=O)O[C@@H]2C)OC1=O`, the TGI in the assay with OVCAR-3 ovarian, with SF-539 CNS, in the assay with MDA-MB-435, in the assay on HT29 colon, with NCI-H23 lung and with EKVX NSCLC was more than 100 µM in each case. In addition, the TGI in the assay on SNB-19 CNS is more than 100 µM; with A498 renal, more than 100 µM; in the assay with HOP-62 NSCLC, more than 100 µM; with BT-549 breast, 74.7 µM.

For `C[C@]12C(=O)OC[C@H](c3ccccc3)N1C(=O)N(Cc1ccccc1)[C@@H]2CO`, the TGI with OVCAR-3 ovarian, with SF-539 CNS, in the assay with MDA-MB-435, in the assay on HT29 colon, in the assay with EKVX NSCLC and in the assay with SNB-19 CNS was more than 100 µM each time. Besides, the TGI in the assay on A498 renal, in the assay on HOP-62 NSCLC and in the assay with BT-549 breast was more than 100 µM throughout.

With `CC(=O)N1N=C(c2ccccc2)NC(=O)C1c1cc(C)c(O)c(C)c1` (stereo not drawn), the TGI in the assay on OVCAR-3 ovarian was 36.7 µM; with SF-539 CNS, 40.3 µM; in the assay with MDA-MB-435 it was more than 100 µM; with HT29 colon, more than 100 µM; in the assay with NCI-H23 lung it was 64.1 µM; in the assay with EKVX NSCLC it was 93.6 µM. Besides, the TGI in the assay on SNB-19 CNS was 50.9 µM; in the assay with A498 renal, 67.2 µM; with HOP-62 NSCLC it was 35.3 µM; with BT-549 breast, 54.1 µM.

`O=[N+]([O-])C1=Cc2c(O)ccc(O)c2C2OC=CC12` (stereo not drawn): the TGI in the assay on OVCAR-3 ovarian was determined as 21.3 µM; in the assay with SF-539 CNS, 47.5 µM; in the assay with MDA-MB-435, 6.1 µM; in the assay on HT29 colon it was 43.8 µM; in the assay on NCI-H23 lung it was 32.4 µM; with EKVX NSCLC, 36.8 µM. For the same molecule, the TGI in the assay on SNB-19 CNS turned out to be 52.2 µM; in the assay on A498 renal it was 30.1 µM; in the assay with HOP-62 NSCLC, 35.2 µM; with BT-549 breast, 27.9 µM.

On to `Cc1cc2c3c(c1)S(=O)(=O)c1cc(Cl)ccc1N3CCC2`, for which the TGI in the assay with OVCAR-3 ovarian, in the assay with SF-539 CNS, with MDA-MB-435, in the assay on HT29 colon, in the assay with EKVX NSCLC and in the assay on SNB-19 CNS was more than 100 µM each time. The TGI in the assay with A498 renal, in the assay on HOP-62 NSCLC and in the assay on BT-549 breast was more than 100 µM in each case.

`COc1ccc(C2c3cc4c(cc3OC(N3CCOCC3)C2C)OCO4)cc1OC` (stereo not drawn): the TGI with OVCAR-3 ovarian was 13.2 µM; in the assay on SF-539 CNS, 22.1 µM; in the assay on MDA-MB-435, 6.25 µM; in the assay with HT29 colon, 46.8 µM; in the assay on NCI-H23 lung, more than 89.6 µM; in the assay on EKVX NSCLC it was more than 100 µM. The TGI with SNB-19 CNS is 77.6 µM; in the assay with A498 renal, 43 µM; with HOP-62 NSCLC it was 72.6 µM; in the assay on BT-549 breast, more than 100 µM.

Consider `CCCCOC(=O)Nc1ccc(S(=O)(=O)Nc2c(Cl)cccc2Cl)cc1`, for which the TGI with OVCAR-3 ovarian is 73.5 µM; in the assay on SF-539 CNS, 80 µM; in the assay on MDA-MB-435, 72.6 µM; in the assay with HT29 colon, 32 µM; in the assay on NCI-H23 lung it was more than 100 µM; in the assay on EKVX NSCLC it was 71.6 µM. Also, the TGI in the assay with SNB-19 CNS was more than 100 µM; in the assay on A498 renal it was 63.1 µM; in the assay with HOP-62 NSCLC it was more than 100 µM; in the assay on BT-549 breast, 60.7 µM.

For the molecule `CCOC(=O)CCC(NC(=O)C(CC(=O)OC)NC(=O)OCc1ccccc1)C(=O)NC(CC(=O)OC)C(=O)NC(CCC(=O)OCC)C(=O)NC(CC(=O)OC)C(=O)NC(CCC(=O)OCC)C(=O)NC(CC(=O)OCC)C(=O)OCC` (stereo not drawn) (Cbz-D(OMe)E(OEt)D(OMe)E(OEt)D(OMe)E(OEt)D(OEt)-OEt; configuration not given here), the TGI in the assay with OVCAR-3 ovarian, in the assay with MDA-MB-435, in the assay with HT29 colon, with NCI-H23 lung, in the assay on SNB-19 CNS and with A498 renal was more than 100 µM in each case. Besides, the TGI in the assay with HOP-62 NSCLC and in the assay on BT-549 breast was more than 100 µM each time.

As to `CCOC(=O)CCCN`, the TGI in the assay with OVCAR-3 ovarian, in the assay on MDA-MB-435, in the assay with HT29 colon, in the assay with NCI-H23 lung, with EKVX NSCLC and in the assay on SNB-19 CNS was more than 100 µM each time. The TGI in the assay with A498 renal, with HOP-62 NSCLC and in the assay with BT-549 breast was more than 100 µM in each case.
